Laboratory results from patent publication US20080161288A1, “COMPOUNDS” (Pfizer Inc., priority 2006, published 2008).

Assays:
[1] = target: T1, bovine beta-2 adrenoceptor (Bos taurus, UniProt Q28044); assay: cAMP assay in CHO cells transfected with the bovine beta-2 adrenoceptor; assay type: cell-based; settings: cAMP (DiscoveRx Hit Hunter cAMP II) in CHO cells transfected with bovine beta-2 adrenoceptor, 30 minutes with compound, 0.5 mM IBMX
T1 construct: expressed in transfected cells; host or cells: CHO cells
T1 sequence (Q28044 whole entry): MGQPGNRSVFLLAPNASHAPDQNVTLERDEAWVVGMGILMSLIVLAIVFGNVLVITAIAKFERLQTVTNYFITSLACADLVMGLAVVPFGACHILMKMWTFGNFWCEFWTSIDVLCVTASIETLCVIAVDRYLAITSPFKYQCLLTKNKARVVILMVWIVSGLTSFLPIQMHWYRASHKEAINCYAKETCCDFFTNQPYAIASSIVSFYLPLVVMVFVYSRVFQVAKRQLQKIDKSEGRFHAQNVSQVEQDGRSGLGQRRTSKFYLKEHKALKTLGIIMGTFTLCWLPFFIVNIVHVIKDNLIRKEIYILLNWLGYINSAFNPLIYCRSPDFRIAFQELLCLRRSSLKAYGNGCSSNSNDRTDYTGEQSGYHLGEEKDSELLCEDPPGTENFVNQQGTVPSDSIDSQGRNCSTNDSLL
How it was run: (§1)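 Transfected CHO cells were preincubated 30 min with 0.5 mM IBMX in PBS. Compound (5×10^−12 to 10^−5 M) was then applied for 30 min at 37 °C, 5% CO2, followed by cAMP measurement with an enzyme-fragment complementation kit. Duplicates, EC50 from curve fitting.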

[2] = target: T2, porcine beta-2 adrenoceptor (Sus scrofa, UniProt Q28997); assay: cAMP assay in CHO cells transfected with the porcine beta-2 adrenoceptor; assay type: cell-based; settings: cAMP (DiscoveRx Hit Hunter cAMP II) in CHO cells transfected with porcine beta-2 adrenoceptor, 30 minutes with compound, 0.5 mM IBMX
T2 construct: expressed in transfected cells; host or cells: CHO cells
T2 sequence (Q28997 whole entry): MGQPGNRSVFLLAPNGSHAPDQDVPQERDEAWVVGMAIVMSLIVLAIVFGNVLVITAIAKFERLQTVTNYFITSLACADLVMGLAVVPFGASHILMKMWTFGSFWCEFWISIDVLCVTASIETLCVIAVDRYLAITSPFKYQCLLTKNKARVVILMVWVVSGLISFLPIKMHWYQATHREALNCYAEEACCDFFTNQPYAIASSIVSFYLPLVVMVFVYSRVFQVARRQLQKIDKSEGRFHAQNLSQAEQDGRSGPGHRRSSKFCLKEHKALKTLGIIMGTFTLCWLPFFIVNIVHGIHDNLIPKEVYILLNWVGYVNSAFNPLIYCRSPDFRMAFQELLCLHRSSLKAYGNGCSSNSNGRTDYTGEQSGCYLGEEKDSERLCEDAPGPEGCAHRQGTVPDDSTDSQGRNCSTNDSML
How it was run: as §1

| EC50 [1] | EC50 [2] | SMILES |
| --- | --- | --- |
| 0.7 nM | 1.1 nM | COc1cccc(CCC(C)N[C@@H]2CCn3c(=O)[nH]c4cccc(c43)[C@H]2O)c1O (single isomer, unassigned) [Example 8b, 7-hydroxy-6-{[3-(2-hydroxy-3-methoxyphenyl)-1-methylpropyl]amino}-4,5,6,7-tetrahydroimidazo[4,5,1-jk][1]benzazepin-2(1H)-one] |
| 55 nM | 80 nM | CC(CCc1cccc(F)c1O)N[C@@H]1CCn2c(=O)[nH]c3cccc(c32)[C@H]1O (mixture of isomers) [Example 28b, 6-{[3-(3-Fluoro-2-hydroxyphenyl)-1-methylpropyl]amino}-7-hydroxy-4,5,6,7-tetrahydroimidazo[4,5,1-jk][1]benzazepin-2(1H)-one] |
| 179 nM | 34.3 nM | CC(CCc1ccccc1)N[C@@H]1CCn2c(=O)[nH]c3cccc(c32)[C@H]1O (single isomer, unassigned) [Example 9b, 7-Hydroxy-6-[(1-methyl-3-phenylpropyl)amino]-4,5,6,7-tetrahydroimidazo[4,5,1-jk][1]benzazepin-2(1H)-one] |
| 7 nM | 2.3 nM | CC(CCc1ccccc1)N[C@@H]1CCn2c(=O)[nH]c3cccc(c32)[C@H]1O (single isomer, unassigned) [Example 9e, 7-Hydroxy-6-[(1-methyl-3-phenylpropyl)amino]-4,5,6,7-tetrahydroimidazo[4,5,1-jk][1]benzazepin-2(1H)-one] |

Second part, the compound before the results:

| SMILES | EC50 [1] | EC50 [2] |
| --- | --- | --- |
| CC(CCc1ccccc1O)N[C@@H]1CCn2c(=O)[nH]c3cccc(c32)[C@H]1O (mixture of isomers) [Example 6b, 7-Hydroxy-6-{[3-(2-hydroxyphenyl)-1-methylpropyl]amino}-4,5,6,7-tetrahydroimidazo[4,5,1-jk][1]benzazepin-2(1H)-one] | 2 nM | 1.4 nM |
| CC(CCc1ccc(C(=O)NC2CC2)cc1)NC1CCn2c(=O)[nH]c3cccc(c32)C1O (single isomer, unassigned) [Example 64, N-Cyclopropyl-4-[3-{[7-hydroxy-2-oxo-1,2,4,5,6,7-hexahydroimidazo[4,5,1-jk][1]benzazepin-6-yl]amino}butyl]benzamide] | 46.4 nM | 42.9 nM |
| CC(CCc1cccc(C(F)(F)F)c1)N[C@@H]1CCn2c(=O)[nH]c3cccc(c32)[C@H]1O (mixture of isomers) [Example 30, 7-Hydroxy-6-({1-methyl-3-[3-(trifluoromethyl)phenyl]propyl}amino)-4,5,6,7-tetrahydroimidazo[4,5,1-jk][1]benzazepin-2(1H)-one] | 37.1 nM | 5.5 nM |
| CC(CCc1c(Cl)ccc(O)c1Cl)NC1CCn2c(=O)[nH]c3cccc(c32)C1O (single isomer, unassigned) [Example 55] | 4.3 nM | 2.7 nM |
| C[C@H](CCc1ccc(N)cc1)N[C@@H]1CCn2c(=O)[nH]c3cccc(c32)[C@H]1O (single isomer, unassigned) [Example 45, 6-{[3-(4-Aminophenyl)-1-methylpropyl]amino}-7-hydroxy-4,5,6,7-tetrahydroimidazo[4,5,1-jk][1]benzazepin-2(1H)-one] | 30.3 nM | 21 nM |
| CC(CCc1cccc(O)c1)N[C@@H]1CCn2c(=O)[nH]c3cccc(c32)[C@H]1O (mixture of isomers) [Example 43, 7-Hydroxy-6-{[3-(3-hydroxyphenyl)-1-methylpropyl]amino}-4,5,6,7-tetrahydroimidazo[4,5,1-jk][1]benzazepin-2(1H)-one] | 7.2 nM | 5.6 nM |
| COc1ccc(CCC(C)NC2CCn3c(=O)[nH]c4cccc(c43)C2O)cc1 (stereo not shown) [Example 34, 7-Hydroxy-6-{[3-(4-methoxyphenyl)-1-methylpropyl]amino}-4,5,6,7-tetrahydroimidazo[4,5,1-jk][1]benzazepin-2(1H)-one] | 20.3 nM | 30.4 nM |
| CC(CCc1ccccc1NC(=O)C(F)(F)F)N[C@@H]1CCn2c(=O)[nH]c3cccc(c32)[C@H]1O (single isomer, unassigned) [Example 51, 2,2,2-Trifluoro-N-{2-[3-{[7-hydroxy-2-oxo-1,2,4,5,6,7-hexahydroimidazo[4,5,1-jk][1]benzazepin-6-yl]amino}butyl]phenyl}acetamide] | 3.6 nM | 11 nM |
| CC(CCc1ccc2c(c1)OCO2)NC1CCn2c(=O)[nH]c3cccc(c32)C1O (stereo not shown) [Example 12, 6-{[3-(1,3-Benzodioxol-5-yl)-1-methylpropyl]amino}-7-hydroxy-4,5,6,7-tetrahydroimidazo[4,5,1-jk][1]benzazepin-2(1H)-one] | 23.1 nM | 11.7 nM |
| CC(CCc1ccc(F)cc1O)N[C@@H]1CCn2c(=O)[nH]c3cccc(c32)[C@H]1O (mixture of isomers) [Example 24, 6-{[3-(4-Fluoro-2-hydroxyphenyl)-1-methylpropyl]amino}-7-hydroxy-4,5,6,7-tetrahydroimidazo[4,5,1-jk][1]benzazepin-2(1H)-one] | 2.7 nM | 4.2 nM |
